Measured values taken from patent US12281058B2, “Manganese catalysts and their use in hydrogenation of ketones” (priority 2019, dated 2025).
Like-named read-outs stand apart in the source and are kept apart here.

Tests used:
[1] = Ketone hydrogenation, general procedure (vial); conditions: 2′-methoxyacetophenone; 0.1 mol % catalyst, 50 °C, 16 h, 50 bar H2, K2CO3, ethanol
[2] = Ketone hydrogenation, general procedure (vial); conditions: cyclohexylphenylketone; 0.1 mol % catalyst, 50 °C, 16 h, 50 bar H2, K2CO3, ethanol
[3] = for Conversion (%) / TOF: acetophenone, gas uptake, 20 bar H2, 50 °C; for TOF: at 20% conversion
Procedure: The vessel was sealed and pressurised with hydrogen gas (5 bar) and vented. This was repeated twice. The degassed ethanol solution was added via an injection port and the vessel sealed and pressurised with hydrogen gas (20 bar) and vented. This was repeated twice. The pressure was set to 2 bar and the mixture heated to 50° C. at which time the pressure was increased to 20 bar and the experiment started. Gas uptake was monitored by reduction of the pressure in the burette. […] The vessel was cooled to room temperature, vented and the content concentrated to dryness and analysed by ^1H-NMR to confirm full conversion. The uptake curve was converted to conversion by dividing the gas uptake at a time-point by total uptake and multiplied by 100 to get percentage conversion. Substrate and product concentrations could be calculated, from which the turnover frequency (TOF) could be calculated. The TOF was reported at 20% conversion to minimise temperature influence of the vessel setup.

[4] = Hydrogenation of acetophenone, microwave vials in autoclave (vial method); conditions: for e.e.: 50 bar H2, chiral HPLC, (S)
[5] = Ketone hydrogenation, general procedure (vial); conditions: 2′,6′-dichloro-3′-fluoroacetophenone, 0.1 mol % catalyst, 50 °C, 16 h
[6] = Ketone hydrogenation, general procedure (vial); conditions: 2′-chloroacetophenone; 0.1 mol % catalyst, 50 °C, 16 h, 50 bar H2, K2CO3, ethanol
[7] = Ketone hydrogenation, general procedure (vial); conditions: 4′-chloropropiophenone, 0.1 mol % catalyst, 50 °C, 16 h
[8] = Ketone hydrogenation, general procedure (vial); conditions: 2′-fluoroacetophenone; 0.1 mol % catalyst, 50 °C, 16 h, 50 bar H2, K2CO3, ethanol
[9] = Ketone hydrogenation, general procedure (vial); conditions: propiophenone; 0.001 equiv. catalyst, 50 °C, 16 h, 50 bar H2, K2CO3, ethanol; chiral HPLC, (S)
[10] = Ketone hydrogenation, general procedure (vial); conditions: isobutyrophenone; 0.001 equiv. catalyst, 50 °C, 16 h, 50 bar H2; chiral HPLC, (S)
[11] = Ketone hydrogenation, general procedure (vial); conditions: 4′-methoxypropiophenone, 0.001 equiv. catalyst, 50 °C, 16 h

[(Rc,Sp)—N-(4-(dimethylamino)pyridine-2-methyl)-1-(˜2-bis(4-methoxy-3,5-dimethylphenyl)phosphino)ferrocenylethylamine]-κN^1-κN^2-κ^P-tricarbonyl manganese (I) bromide [compound 6]
Conversion [1]: >99% | Conversion [2]: >99% | Conversion (%) ([3]; 0.05 mol % catalyst, 12 h): 100% | TOF ([3]; 0.05 mol % catalyst): 237 h⁻¹ | Conversion (%) ([3]; 0.1 mol % catalyst, ethanol, run to completion): 100% | TOF ([3]; 0.1 mol % catalyst): 230 h⁻¹ | turnover frequency (TOF) with 6 relative to 7 ([3]; hydrogenation of acetophenone, Table 2): at least 3.5 times | Conversion ([4]; 0.01 mol % catalyst, 65 °C, 24 h, 50 bar H2): >99% | e.e. ([4]; 0.01 mol % catalyst, 65 °C, 24 h): 57% (S) | Conversion ([4]; 0.02 mol % catalyst, 60 °C, 16 h, 50 bar H2): >99% | e.e. ([4]; 0.02 mol % catalyst, 60 °C, 16 h): 51% (S) | Conversion ([4]; 0.1 mol % catalyst, 50 °C, 16 h, 50 bar H2, K2CO3, ethanol): >99% | Conversion (%) ([4]; vial method, 0.1 mol % catalyst, 2 h, 50 bar H2): 56.5% | TOF ([4]; vial method, 0.1 mol % catalyst, calculated after 2 h, 50 bar H2): 283 h⁻¹ | Conversion ([5]; 50 bar H2, K2CO3, ethanol): >99% | Conversion [6]: >99% | Conversion ([7]; 50 bar H2, K2CO3, ethanol): >99% | Conversion [8]: >99%

[(Rc,Sp)—N-2-picolynyl-1-(-2-bis(4-methoxy-3,5-dimethylphenyl)-phosphino)ferrocenylethylamine]-κN^1-κN^2-κ^P-tricarbonyl manganese (I) bromide [compound 2]
ee [9]: 76% | ee [10]: 90% | conversion to product (NMR analysis) ([11]; 50 bar H2, K2CO3, ethanol): 96% | ee ([11]; 50 bar H2, chiral HPLC, (S)): 70% | e.e. ([5]; 50 bar H2, chiral HPLC, (S)): 82% | e.e. ([7]; 50 bar H2, chiral HPLC, (S)): 80%
